In one experiment the test system is Raf-1. Nature of the experiment: Raf-1 protein levels in MiaPaCa-2 tumors (Western blot). To be noted: 20 mg/kg SC daily for 5 days. It is filed as in vivo, mice. Here is the method: In this model, it was verified if there was an association between antitumor activity and inhibition of the Ras-MAPK pathway. In parallel to the antitumor study described above, two additional groups of 5 mice were treated SC with vehicle or 20 mg/kg ECO-4601, administered daily for 5 days. Animals from these two groups were sacrificed two hours on day 5 of treatment. As shown by quantification of Western blot analysis (FIG. 13), Raf-1 levels were reduced in MiaPaCa-2 tumors obtained from animals treated with ECO-4601 compared with the vehicle-treated animals.

For experiment [1], the system named is human breast cell line MDA-MB-231. Nature of the experiment: Growth inhibitory MTT assay, MDA-MB-231. It is filed as cell-based. To be noted: 72 hours, treated over control. The protocol: Growth inhibitory activity of ECO-4601 (Compound 1) and other dibenzodiazepinone analogs was evaluated on a panel of 4 human tumor cell lines: the human uterine sarcoma MES-SA and its doxorubicin-resistant P-glycoprotein over-expressing variant, MES-SA/DX5 as well as non-aggressive and highly aggressive human breast cell lines, MCF-7 and MDA-MB-231, respectively. These four cell lines were obtained from the American Type Culture Collection (Manassas, Va.) and cultured in RPMI plus 10% fetal bovine serum (FBS) and maintained at 37° C. with 5% CO2.
Exponentially growing cells (5,000 cells per well time; cell number determined with a hemocytometer) were seeded in 96-well flat-bottom plates and allowed to grow overnight. Cells were then incubated for 72 hours with three different concentrations of ECO-4601 or analogs: 30,10, and 3 μM. The in vitro growth inhibitory activity was determined by a commercial MTT assay. All measurements were done in quadruplicate and each experiment was performed 2-3 times. The lower the value, the more cytotoxic is the compound.
(Tetrazolium assays rely on reduction of a dye to a coloured formazan, in cell work by metabolically active cells.)

Experiment [2] has as its target GABAA, the Central Benzodiazepine Receptor (CBR). The experiment is described as follows: CBR radioligand binding assay ([3H]flunitrazepam, rat brain). To be noted: 1 nM [3H]-Flunitrazepam. An excerpt: GABAA, the Central Benzodiazepine Receptor (CBenzR or CBR) is involved in anxiolitic activities.
The procedures used were based on known assays: ACAT (from rat; Ref: Largis et al (1989), J. Lipid. Res., vol 30, 681-689), COX-2 (human; Ref: Riendeau et al (1997), Can. J. Physiol. Pharmacol., vol 75, 1088-1095 and Warner et al (1999), Pro. Natl. Acad. Sci. USA, vol 96, 7563-7568), 5-LO (human; Ref: Carter et al (1991), J. Pharmacol. Exp. Ther., vol 256, no 3, 929-937, and Safayhi et al (2000), Planta Medica, vol 66, 110-113), PBR (from rat; Le Fur et al (1983), Life Sci. USA, vol 33, 449-457), CysLT1 (human; Martin et al (2001), Biochem. Pharmacol., vol 62, no 9, 1193-1200) and CBR (from rat; Damm et al (1978), Res. Comm. Chem. Pathol. Pharmacol., vol 22, 597-600 and Speth et al (1979), Life Sci., vol 24, 351-357).
Binding Assays were done at constant concentration of the compound, in 1% DMSO as vehicle, and are specified below each enzyme/receptor type in Table 18. The results are expressed in Table 18 as percentage inhibition. […]
As Compound 1 was isolated from structural prediction through genetic analysis and activity identified through in vitro cytotoxic assays, its molecular target(s) were unknown at the time of discovery. […] The effect of ECO-4601 on CBR (GABAA) and PBR was initially evaluated in a radioligand-binding assay at MDS Pharma Services (Taipei, Tawain). […]

The target in experiment [3] is T1, peripheral benzodiazepine receptor (PBR) (Rattus norvegicus, UniProt P16257).
T1 construct: CBR and PBR were obtained from rat brain and heart membrane-fractions, respectively; from tissue; host or cells: Wistar rat heart membranes
Nature of the experiment: In-house PBR binding assay ([3H]PK11195, rat heart mitochondrial membranes).

The target of the next experiment is T2, human MAPK2 (ERK2) (Homo sapiens, UniProt P28482).
T2 construct: purchased Upstate (Kinase Profiler Service; Dundee, UK)
Nature of the experiment: Upstate Kinase Profiler, MAPK2 (ERK2). It is filed as biochemical. Here is the method: Unlike current Ras signalling pathway inhibitors, ECO-4601 is not a direct kinase inhibitor. This was documented by evaluating the effect of ECO-4601 on human EGFR, c-RAF, MEK1, MAPK1 (ERK1) and MAPK2 (ERK2) kinase-activity (Upstate Kinase Profiler™ Service; Dundee, UK). ECO-4601 was tested at 0.5 μM and 5 μM in a final volume of 25 μL according to standard protocols developed by Upstate Ltd. Briefly, purified recombinant human enzymes were incubated with 25 mM Tris pH 7.5 containing EGTA, a specific substrate and γ-^32P-ATP. The reaction was initiated with MgATP mix and incubated for 40 minutes at RT. The reaction was stopped by the addition of 5 μL of a 3% phosphoric acid solution; aliquots were spotted on filters and counted. Detailed procedures are available on the Millipore Upstate website.

T2 sequence (P28482 whole entry): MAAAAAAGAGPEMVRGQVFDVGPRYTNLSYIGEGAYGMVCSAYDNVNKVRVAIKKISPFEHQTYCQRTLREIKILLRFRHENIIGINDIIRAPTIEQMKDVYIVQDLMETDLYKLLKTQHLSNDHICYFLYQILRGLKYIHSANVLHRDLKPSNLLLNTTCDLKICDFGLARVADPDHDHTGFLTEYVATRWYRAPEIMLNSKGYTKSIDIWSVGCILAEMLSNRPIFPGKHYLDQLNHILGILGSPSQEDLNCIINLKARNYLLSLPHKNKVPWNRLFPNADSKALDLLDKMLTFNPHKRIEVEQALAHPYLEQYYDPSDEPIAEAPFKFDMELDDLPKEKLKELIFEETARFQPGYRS

With `CC(C)=CCC/C(C)=C/CC/C(C)=C/CN1C(=O)c2cccc(O)c2Nc2c(O)cc(O)cc21` [Compound 1, 10-farnesyl-4,6,8-trihydroxy-5,10-dihydrodibenzo[b,e][1,4]diazepin-11-one], in the experiment on Raf-1, the “Raf-1 levels in MiaPaCa-2 tumors versus vehicle-treated animals” value was “reduced”. In experiment [1], the “% T/C at 10 μM” value stood at 38%. Besides, the IC50 in experiment [2] was greater than 10 µM; in experiment [3] (in-house radioligand-binding assay), 2.7 µM. Also, the EC50 in experiment [3] amounted to 2.8 µM. The “PBR binding (in words)” value in experiment [3] is “bind the PBR”. For the same compound, in experiment [3] (Ki=EC50/(1+[ligand]/Kd), [ligand]=1.6 nM, read-out: calculated Ki), the inhibition constant (Ki) is roughly 1.4 µM. In addition, the “direct inhibition of ERK2 kinase activity (in words)” value at human MAPK2 (ERK2) (0.5 μM and 5 μM) was “does not directly inhibit”. Also, on human MAPK2 (ERK2) (MAPK2 (ERK2), 0.5 μM, % of enzyme activity over positive control, read-out: Kinase Activity (%) ± SD), the activity at 0.5 µM came to 116 ± 1%. Also, the activity at 5 µM at human MAPK2 (ERK2) (MAPK2 (ERK2), 5 μM, % of enzyme activity over positive control, read-out: Kinase Activity (%) ± SD) is 110 ± 1%.

As usually defined, the IC50 is the concentration needed to halve the response being measured. Lower therefore signals higher potency. A word on the EC50: it is the midpoint of the concentration-response curve. Lower therefore signals higher potency in that assay. In general, Ki refers to the dissociation constant of the complex between target and ligand, obtained from inhibition or displacement.

These data come from patent US20090062255A1, “TUMOR-TARGETING EVALUATION METHODOLOGY AND COMPOUNDS RELATED THERETO” (THALLION PHARMACEUTICALS INC., priority 2007, published 2009).
